{
  "source": "patent US8759348B2",
  "about": "“Use of 4-(pyrrolidin-1-yl)quinoline compounds to kill clinically latent microorganisms” (Helperby Therapeutics Limited, priority 2007, dated 2014)",
  "key": {"[1]": {"test_system": "Staph. aureus stationary phase bacteria", "experiment": "Bactericidal activity against stationary-phase cultures (CFU counts)", "type": "cell-based, Staphylococcus aureus", "conditions": "5 μg/mL of test compound"}, "[2]": {"test_system": "methicillin-resistant Staph. aureus stationary phase bacteria", "experiment": "Bactericidal activity against stationary-phase cultures (CFU counts)", "type": "cell-based, Methicillin resistant S. aureus (MRSA)", "conditions": "MRSA stationary phase, 10 μg/mL of test compound"}, "[3]": {"test_system": "Streptococcus agalactiae stationary phase bacteria", "experiment": "Bactericidal activity against stationary-phase cultures (CFU counts)", "type": "cell-based", "conditions": "10 μg/mL of test compound"}, "[4]": {"test_system": "stationary phase Candida albicans", "experiment": "Activity against stationary-phase cultures of Candida albicans (CFU counts)", "type": "cell-based", "conditions": "10 μg/mL of test compound"}, "[5]": {"test_system": "stationary phase Mycobacterium tuberculosis", "experiment": "Bactericidal activity against M. tuberculosis stationary-phase cultures (Model 1)", "type": "cell-based", "conditions": "10 μg/mL of test compound"}, "[6]": {"test_system": "Streptococcus pyogenes stationary phase bacteria", "experiment": "Bactericidal activity against stationary-phase cultures (CFU counts)", "type": "cell-based", "conditions": "20 μg/mL of test compound"}, "[7]": {"test_system": "Coagulase negative staphylococcus stationary phase bacteria", "experiment": "Bactericidal activity against stationary-phase cultures (CFU counts)", "type": "cell-based, Coagulase negative staphylococcus (CNS)", "conditions": "5 μg/mL of test compound"}, "[8]": {"test_system": "Enterococcus stationary phase bacteria", "experiment": "Bactericidal activity against stationary-phase cultures (CFU counts)", "type": "cell-based", "conditions": "5 μg/mL of test compound"}, "[9]": {"test_system": "Streptococcus pneumoniae stationary phase bacteria", "experiment": "Bactericidal activity against stationary-phase cultures (CFU counts)", "type": "cell-based", "conditions": "10 μg/mL of test compound"}, "[10]": {"test_system": "E. coli K12 stationary phase bacteria", "experiment": "Bactericidal activity against stationary-phase cultures (CFU counts)", "type": "cell-based, Escherichia coli K12", "conditions": "10 μg/mL of test compound"}, "[11]": {"test_system": "Propionibacterium acnes stationary phase bacteria", "experiment": "Bactericidal activity against stationary-phase cultures (CFU counts)", "type": "cell-based", "conditions": "10 μg/mL of test compound"}},
  "data": [
    {"molecule": "Cc1cc(N2CCC(c3ccccc3)C2)c2cc(OCCc3ccccc3)ccc2n1.Cl", "note": "(centres unmarked) [Example 6, 2-Methyl-6-phenethyloxy-4-(3-phenylpyrrolidin-1-yl)quinoline hydrochloride]", "values": [
      {"measurement": "log kill", "setting": "[1]", "value": 6.16}
    ]},
    {"molecule": "Cc1cc(N2CCC(Cc3ccccc3)C2)c2cc(Oc3ccccc3)ccc2n1.Cl", "note": "(centres unmarked) [Example 8, 4-(3-Benzylpyrrolidin-1-yl)-2-methyl-6-phenoxyquinoline hydrochloride]", "values": [
      {"measurement": "log kill", "setting": "[2]", "value": 6.34},
      {"measurement": "log kill", "setting": "[3]", "value": 0.97},
      {"measurement": "log kill", "setting": "[4]", "value": 3.70},
      {"measurement": "log kill", "setting": "[5]", "value": 5.76}
    ]},
    {"molecule": "COc1ccc(C2CCN(c3cc(C)nc4ccc(Oc5ccccc5)cc34)C2)cc1.Cl", "note": "(centres unmarked) [Example 9, 4-[3-(4-Methoxyphenyl)pyrrolidin-1-yl]-2-methyl-6-phenoxyquinoline hydrochloride]", "values": [
      {"measurement": "log kill", "setting": "[6]", "value": 6.42}
    ]},
    {"molecule": "Cc1cc(N2CCC(c3ccccc3)C2)c2cc(NC(=O)c3cc(C)[nH]n3)ccc2n1.Cl", "note": "(centres unmarked) [Example 22, 5-Methyl-1H-pyrazole-3-carboxylic acid [2-methyl-4-(3-phenylpyrrolidin-1-yl)-quinolin-6-yl]amide hydrochloride]", "values": [
      {"measurement": "log kill", "setting": "[7]", "value": 5.99},
      {"measurement": "log kill", "setting": "[8]", "value": 3.22}
    ]},
    {"molecule": "Cc1cc(N2CCC(c3ccccc3)C2)c2cc(Oc3ccccc3)ccc2n1.Cl", "note": "(centres unmarked) [Example 39, 2-Methyl-6-phenoxy-4-(3-phenylpyrrolidin-1-yl)quinoline hydrochloride]", "values": [
      {"measurement": "log kill", "setting": "[9]", "value": 7.32},
      {"measurement": "log kill", "setting": "[10]", "value": 6.80},
      {"measurement": "log kill", "setting": "[11]", "value": 6.34}
    ]}
  ]
}
